System: β2-AR-Sp SPASM sensor
Assay: ΔFRET assay of β2-AR activation on native membranes with β2-AR-Sp SPASM sensor
Format: biochemical, human
Set-up: mean ΔFRET: unit of the concentration uncertain
Settings: for mean ΔFRET: SuppFig 3c
Experimental: Membranes were prepared following a published protocol[56] from HEK293T cells transiently transfected with the appropriate DNA (β2-AR-mCherry, β2-mCerulean, V1AR-mCherry, β2-AR-ICL3 or β2-AR-Sp). Cells were collected in culture medium and washed twice with PBS by centrifugation (300 × g, 3 min, ambient temperature). Cell pellets were incubated with an ice-cold hypotonic buffer (solution A: 10 mM HEPES, 1 mM EGTA, pH 7.2) for 30 min on ice. Cells in solution A were lysed gently (30 strokes) in a chilled Dounce homogenizer in the presence of 1.5 μg/mL aprotinin, 1.5 μg/mL leupeptin, 5 μg/mL phenylmethylsulfonyl fluoride (PMSF) and 1 mM dithiothreitol (DTT). Nuclei and intact cells were eliminated by centrifugation at 1000 × g, 5 min, 4 °C. All subsequent centrifugation steps were performed in a TLA100.4 rotor at 135,000 × g, 30 min, 4 °C. Native membranes were washed with 20 mM HEPES, 100 mM NaCl, 5 mM MgCl2, 100 μM GDP in the presence of 1.5 μg/mL aprotinin, 1.5 μg/mL leupeptin, 5 μg/mL PMSF, and 1 mM DTT, and were stored in the same buffer with 12% sucrose. For experiments to monitor Gα peptide–GPCR interactions using ΔFRET response, the native β2-AR-Sp sensor-containing membranes were washed in buffer containing 20 mM HEPES, 100 mM NaCl, 45 mM KCl, 5 mM MgCl2, and 100 μM GDP, and were stored in sucrose (12% w/v)-supplemented wash buffer.
Native membranes were collected from HEK293T cells expressing either the β2-AR-Sp SPASM sensor or the β2-AR-ICL3 conformational sensor. Frozen membranes were thawed and handled on ice. The membranes were resuspended by sonication to a concentration of 100 nM sensor (1 × 10^6 mCer cps) in 20 mM HEPES, 100 mM NaCl, 45 mM KCl, 5 mM MgCl2, pH 7.4 (ΔFRET buffer minus Ca^2+) in the presence of 1.5 μg/mL aprotinin, 1.5 μg/mL leupeptin, and 5 μg/mL PMSF. Indicated peptides were added to 30 μM (50 μM for PC-Qp) in a sample volume of 1 mL. The sample was aliquoted as 90 μl into ten replicate tubes—five labeled ISO and five buffer. Agonist solution (ISO) containing 1 mM Isoproterenol and 1 mM ascorbic acid was prepared in ΔFRET buffer minus Ca^2+. […]

DTENIRFVFAAVKDTILQLNLKE(Anp)NLV [PC-Qp, photocleavable Qp, Y356 replaced by Anp]
mean ΔFRET (PCQp (30 µM)): 0.018
mean ΔFRET (PCQp (50 µM)): 0.024
duration of sustained FRET response after peptide removal (β2-AR-Sp sensor, ISO 100 μM, depletion (bioQp) or photocleavage (PC-Qp)): 120 s
